Laboratory results reported in patent US20250026769A1, “PAPD5 INHIBITORS AND METHODS OF USE THEREOF” (The Children's Medical Center Corporation, priority 2021, published 2025).
Where two headings read alike, the source gives them in different places.

Key:
rPAPD5 = target: T1, rPAPD5 (Homo sapiens, UniProt Q8NDF8); test: differential scanning fluorimetry (DSF) binding and stabilization of rPAPD5; settings: for ΔTm at 100 µM: read-out: ΔTm at 100 μM; for ΔTm at 1 µM: read-out: ΔTm at 1 μM
T1 construct: made in house
Method in brief: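 Compound-induced shifts in rPAPD5 melting temperature were determined by thermal shift (DSF). Protein at […] was mixed with a non-extendable ATP analog […] in Tris-HCl (25 mM), MgCl2 (5 mM) and KCl (50 mM), with SYPRO orange at 1:5000. Curves were averages of three measurements analyzed with Thermal Shift software, and ΔTm was referenced to DMSO.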

[1] = tested on: TERC 3′ end processing in DC patient iPSCs; test: TERC 3′ end processing by RACE in DC patient / PARN-mutant iPSCs; type: cell-based, human; settings: Homo sapiens, iPSC, read-out: iPSC-based RACE activity
Experimental: Compound 266A had activity ˜2-logs higher in the in vitro RNA oligoadenylation assay compared to the parental compound cmpd. 1, approximating the activity of RG7834 (FIG. 7). […] 1. Compounds 295A and 296A had activity 2-3 logs higher in DC patient iPSCs, showing TERC maturation at 1 nM, similar to RG7834 (FIG. 6). […] Referring to Table 1D, “+” refers to activity at 1 μM, “++” refers to activity above 1 nM and below 1 μM, and “+++” refers to activity at <1 nM, “ND” refers to not determined.

[2] = 100 μM test compound, shift vs DMSO control
[3] = patient iPSCs, concentration class at which activity is seen
[4] = 10 μM test compound (Table 2a), read-out: ΔTm at 10 μM
[5] = 10 μM test compound, shift vs DMSO control, read-out: ΔTm (Table 2, starred: the compound was tested at 10 μM)

T1 sequence (Q8NDF8 68-698 isoform Q8NDF8-5 limits assumed): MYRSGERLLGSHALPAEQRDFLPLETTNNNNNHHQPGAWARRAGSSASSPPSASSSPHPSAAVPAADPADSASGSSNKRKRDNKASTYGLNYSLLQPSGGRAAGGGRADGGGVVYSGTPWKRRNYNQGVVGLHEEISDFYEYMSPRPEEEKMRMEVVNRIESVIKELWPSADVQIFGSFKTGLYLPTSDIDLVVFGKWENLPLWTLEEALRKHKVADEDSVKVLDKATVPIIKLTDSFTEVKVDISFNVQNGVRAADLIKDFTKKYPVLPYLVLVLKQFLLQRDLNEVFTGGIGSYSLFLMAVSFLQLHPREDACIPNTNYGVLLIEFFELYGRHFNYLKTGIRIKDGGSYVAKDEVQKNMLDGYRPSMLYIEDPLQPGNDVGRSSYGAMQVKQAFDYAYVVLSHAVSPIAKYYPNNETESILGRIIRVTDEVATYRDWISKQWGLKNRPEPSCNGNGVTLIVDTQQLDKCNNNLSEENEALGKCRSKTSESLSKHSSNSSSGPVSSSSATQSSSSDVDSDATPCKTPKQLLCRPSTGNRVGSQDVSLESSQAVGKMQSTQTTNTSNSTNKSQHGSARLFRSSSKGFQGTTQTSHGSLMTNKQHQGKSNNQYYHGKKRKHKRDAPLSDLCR

Row | Compound | ΔTm at 100 µM (rPAPD5; [2]) | ΔTm at 1 µM (rPAPD5; 1 μM test compound (Table 2a)) | ΔTm at 10 µM (rPAPD5; [4]) | minimal effective concentration [1, 3] | also measured
1 | O=C(O)c1ccccc1Nc1c(C2=CCSCC2)cnc2ccc(Cl)cc12 [Compound 299A, 2-[[6-chloro-3-(3,6-dihydro-2H-thiopyran-4-yl)-4-quinolyl]amino]benzoic acid] | > 5 °C |  |  |  | 
2 | O=C(O)c1cc(F)ccc1Nc1c(-c2ncco2)cnc2ccc(Cl)cc12 [Compound 300A, 2-[(6-chloro-3-oxazol-2-yl-4-quinolyl)amino]-5-fluoro-benzoic acid] | > 5 °C |  |  |  | 
3 | COc1ccc(Nc2c(-c3ncco3)cnc3ccc(Cl)cc23)c(C(=O)O)c1 [Compound 302A, 2-[(6-chloro-3-oxazol-2-yl-4-quinolyl)amino]-5-methoxy-benzoic acid] | > 5 °C |  |  |  | 
4 | O=C(O)c1cc(F)ccc1Nc1c(C2=CCOCC2)cnc2ccc(Cl)cc12 [Compound 304A, 2-[[6-chloro-3-(3,6-dihydro-2H-pyran-4-yl)-4-quinolyl]amino]-5-fluoro-benzoic acid] | > 5 °C |  |  |  | 
5 | COc1ccc(Nc2c(C3=CCOCC3)cnc3ccc(Cl)cc23)c(C(=O)O)c1 [Compound 308A, 2-[[6-chloro-3-(3,6-dihydro-2H-pyran-4-yl)-4-quinolyl]amino]-5-methoxy-benzoic acid] | > 5 °C |  |  |  | 
6 | CCc1ccc(Nc2c(S(=O)(=O)N3CCOCC3)cnc3ccc(Cl)cc23)c(C(=O)O)c1 [Compound 318A, 2-[(6-chloro-3-morpholinosulfony 1-4-quinolyl)amino]-5-ethyl-benzoic acid] | > 5 °C |  |  |  | 
7 | CCCc1ccc(Nc2c(S(=O)(=O)N3CCOCC3)cnc3ccc(Cl)cc23)c(C(=O)O)c1 [Compound 319A, 2-[(6-chloro-3-morpholinosulfonyl-4-quinolyl)amino]-5-propyl-benzoic acid] | 1 to 5 °C |  |  |  | 
8 | CC(C)c1ccc(Nc2c(S(=O)(=O)N3CCOCC3)cnc3ccc(Cl)cc23)c(C(=O)O)c1 [Compound 320A, 2-[(6-chloro-3-morpholinosulfonyl-4-quinolyl)amino]-5-isopropyl-benzoic acid] | 1 to 5 °C |  |  |  | 
9 | O=C(O)c1ccccc1Nc1c(S(=O)(=O)N2CCOCC2)cnc2ccc(B(O)O)cc12 [Compound 321A, 2-[(6-borono-3-morpholinosulfonyl-4-quinolyl)amino]benzoic acid] | < 1 °C |  |  |  | 
10 | O=C(O)c1ccccc1Nc1c(S(=O)(=O)N2CCOCC2)cnc2ccc(O)cc12 [Compound 322A, 2-[(6-hydroxy-3-morpholinosulfonyl-4-quinolyl)amino]benzoic acid] | > 5 °C |  |  |  | 
11 | O=C(O)c1ccccc1Nc1c(C2CCS(=O)(=O)CC2)c[n+]([O-])c2ccc(Cl)cc12 [Compound 323A, 2-[[6-chloro-3-(1,1-dioxothian-4-yl)-1-oxido-quinolin-1-ium-4-yl]amino]benzoic acid] | > 5 °C |  |  |  | 
12 | O=C(O)c1c(Nc2c(S(=O)(=O)N3CCOCC3)cnc3ccc(Cl)cc23)ccc(Cl)c1O [Compound 324A, 3-chloro-6-[(6-chloro-3-morpholinosulfonyl-4-quinolyl)amino]-2-hydroxy-benzoic acid] | > 5 °C |  |  |  | 
13 | O=C(O)c1ccccc1Sc1c(S(=O)(=O)N2CCOCC2)cnc2ccc(Cl)cc12 [Compound 328A] |  |  |  |  | ΔTm at 100 µM (rPAPD5): 1 to 5 °C
14 | O=C(O)c1cc(Cl)ccc1Sc1c(S(=O)(=O)N2CCOCC2)cnc2ccc(Cl)cc12 [Compound 330A, 5-chloro-2-[(6-chloro-3-morpholinosulfonyl-4-quinolyl)sulfanyl]benzoic acid] | > 5 °C |  |  |  | 
15 | N#Cc1ccc(Nc2c(S(=O)(=O)N3CCOCC3)cnc3ccc(Cl)cc23)c(C(=O)O)c1 [Compound 338A, 2-[(6-chloro-3-morpholinosulfonyl-4-quinolyl)amino]-5-cyano-benzoic acid] | > 5 °C |  |  |  | 
16 | O=C(O)c1cc(Cl)ccc1Nc1c(C2CCNC2)cnc2ccc(Cl)cc12 (centres unmarked) [Compound 357A, 5-chloro-2-((6-chloro-3-(pyrrolidin-3-yl)quinolin-4-yl)amino)benzoic acid] | > 5 °C | > 5 °C | > 5 °C | 1 µM | 
17 | O=C(O)c1cc(Cl)ccc1Nc1c(C2=CCNCC2)cnc2ccc(Cl)cc12 [Compound 368A, 5-chloro-2-[[6-chloro-3-(1,2,3,6-tetrahydropyridin-4-yl)-4-quinolyl]amino]benzoic acid] | > 5 °C | > 5 °C | > 5 °C | 1 µM | 
18 | NC(=O)c1ccc(Nc2c(S(=O)(=O)N3CCOCC3)cnc3ccc(Cl)cc23)c(C(=O)O)c1 [Compound 373A, 5-carbamoyl-2-[(6-chloro-3-morpholinosulfonyl-4-quinolyl)amino]benzoic acid] |  |  |  |  | ΔTm at 100 µM (rPAPD5): 1 to 5 °C
19 | O=C(O)c1cc(Cl)ccc1Nc1c(C2CCC(F)CC2)cnc2ccc(Cl)cc12 (centres unmarked) [Compound 400A, 5-chloro-2-[[6-chloro-3-(4-fluorocyclohexyl)-4-quinolyl]amino]benzoic acid] |  |  |  |  | minimal effective concentration [1]: < 0.001 µM; ΔTm at 10 µM (rPAPD5; read-out: ΔTm (Table 2, starred: the compound was tested at 10 μM)): > 5 °C; ΔTm at 1 µM (rPAPD5): > 5 °C; ΔTm at 10 µM (rPAPD5; read-out: ΔTm at 10 μM): > 5 °C

Second part, led by results:

Row | ΔTm at 100 µM (rPAPD5; [2]) | ΔTm at 1 µM (rPAPD5; 1 μM test compound (Table 2a)) | ΔTm at 10 µM (rPAPD5; [4]) | Compound | minimal effective concentration [1, 3] | also measured
20 | > 5 °C | > 5 °C | > 5 °C | O=C(O)c1cc(Cl)ccc1Nc1c(-c2nnn[nH]2)cnc2ccc(Cl)cc12 [Compound 359A, 5-chloro-2-[[6-chloro-3-(1H-tetrazol-5-yl)-4-quinolyl]amino]benzoic acid] |  | 
21 | > 5 °C | > 5 °C | > 5 °C | O=C(O)c1cc(Cl)ccc1Nc1c(N2CCNCC2)cnc2ccc(Cl)cc12 [Compound 362A, 5-chloro-2-[(6-chloro-3-piperazin-1-yl-4-quinolyl)amino]benzoic acid] | 1 µM | 
22 | > 5 °C | > 5 °C | > 5 °C | O=C(O)c1cc(Cl)ccc1Nc1c(C(=O)N2CCOCC2)cnc2ccc(Cl)cc12 [Compound 372A, 5-chloro-2-[[6-chloro-3-(morpholine-4-carbonyl)-4-quinolyl]amino]benzoic acid] | 1 µM | 
23 |  | > 5 °C | > 5 °C | O=C(O)c1cc(Cl)ccc1Nc1c(N2CCC(OC(F)(F)F)CC2)cnc2ccc(Cl)cc12 [Compound 394A, 5-chloro-2-[[6-chloro-3-[4-(trifluoromethoxy)-1-piperidyl]-4-quinolyl]amino]benzoic acid] | < 0.001 µM | ΔTm at 10 µM (rPAPD5; [5]): > 5 °C
24 | < 1 °C |  |  | O=C(O)c1ccc(Nc2c(S(=O)(=O)N3CCOCC3)cnc3ccc(Cl)cc23)c(C(=O)O)c1 [Compound 398A, 4-[(6-chloro-3-morpholinosulfonyl-4-quinolyl)amino]benzene-1,3-dicarboxylic acid] |  | 
25 | > 5 °C | > 5 °C | > 5 °C | O=C(O)c1cc(Cl)ccc1Nc1c(C2=CCOC2)cnc2ccc(Cl)cc12 [Compound 401A, 5-chloro-2-[[6-chloro-3-(2,5-dihydrofuran-3-yl)-4-quinolyl]amino]benzoic acid] | 1 µM | 
26 | > 5 °C | > 5 °C | > 5 °C | O=C(O)c1cc(Cl)ccc1Nc1c(C2=CCNC2)cnc2ccc(Cl)cc12 [Compound 402A, 5-chloro-2-((6-chloro-3-(2,5-dihydro-1H-pyrrol-3-yl)quinolin-4-yl)amino)benzoic acid] | 1 µM | 
27 | > 5 °C | > 5 °C | > 5 °C | O=C1CC=C(c2cnc3ccc(Cl)cc3c2Nc2ccc(Cl)cc2C(=O)O)CC1 [Compound 403A, 5-chloro-2-[[6-chloro-3-(4-oxocyclohexen-1-yl)-4-quinolyl]amino]benzoic acid] | 1 µM | 
28 | > 5 °C | > 5 °C | > 5 °C | O=C(O)c1cc(Cl)ccc1Nc1c(S(=O)(=O)N2CCSCC2)cnc2cc(F)c(Cl)cc12 [Compound 415A, 5-chloro-2-[(6-chloro-7-fluoro-3-thiomorpholinosulfonyl-4-quinolyl)amino]benzoic acid] | 1 µM | 
29 | > 5 °C | > 5 °C | > 5 °C | O=C(O)c1cc(Cl)c(F)cc1Nc1c(S(=O)(=O)N2CCSCC2)cnc2ccc(Cl)cc12 [Compound 425A, 5-chloro-2-[(6-chloro-3-thiomorpholinosulfonyl-4-quinolyl)amino]-4-fluoro-benzoic acid] | 0.001 to 1 µM | 
30 |  | 1 to 5 °C | > 5 °C | Cc1cc(Nc2c(S(=O)(=O)N3CCSCC3)cnc3ccc(Cl)cc23)c(C(=O)O)cc1Cl [Compound 426A, 5-chloro-2-[(6-chloro-3-thiomorpholinosulfonyl-4-quinolyl)amino]-4-methyl-benzoic acid] | 1 µM | ΔTm at 10 µM (rPAPD5; [5]): > 5 °C
31 | > 5 °C | > 5 °C | > 5 °C | O=C(O)c1cc(Cl)ccc1Nc1c(S(=O)(=O)N2CCS(=O)(=O)CC2)cnc2ccc(Cl)cc12 [Compound 429A, 5-chloro-2-[[6-chloro-3-[(1,1-dioxo-1,4-thiazinan-4-yl)sulfonyl]-4-quinolyl]amino]benzoic acid] |  | 
